According to patent publication US9084828B2, “Oligomer-protein tyrosine kinase inhibitor conjugates” (Nektar Therapeutics, priority 2009, dated 2015):

What was measured:
Type in all cases: biochemical
ABL(H396P) = ABL(H396P) (Homo sapiens, UniProt P00519, H396P); test: Activity against various protein tyrosine kinases: ABL(H396P)
Description: (§1) Using techniques know those of ordinary skill in the art, compounds were tested for activity against various protein tyrosine kinases.

ABL(T315I) = ABL(T315I) (Homo sapiens, UniProt P00519, T315I); test: Activity against various protein tyrosine kinases: ABL(T315I)
Description: as §1

AKT1 = AKT1 (Homo sapiens, UniProt P31749); test: Activity against various protein tyrosine kinases: AKT1
AKT3 = AKT3 (Homo sapiens, UniProt Q9Y243); test: Activity against various protein tyrosine kinases: AKT3
AurA = target: T1, AurA (Homo sapiens, UniProt O14965); test: Activity against various protein tyrosine kinases: AurA
T1 sequence (O14965 1-403): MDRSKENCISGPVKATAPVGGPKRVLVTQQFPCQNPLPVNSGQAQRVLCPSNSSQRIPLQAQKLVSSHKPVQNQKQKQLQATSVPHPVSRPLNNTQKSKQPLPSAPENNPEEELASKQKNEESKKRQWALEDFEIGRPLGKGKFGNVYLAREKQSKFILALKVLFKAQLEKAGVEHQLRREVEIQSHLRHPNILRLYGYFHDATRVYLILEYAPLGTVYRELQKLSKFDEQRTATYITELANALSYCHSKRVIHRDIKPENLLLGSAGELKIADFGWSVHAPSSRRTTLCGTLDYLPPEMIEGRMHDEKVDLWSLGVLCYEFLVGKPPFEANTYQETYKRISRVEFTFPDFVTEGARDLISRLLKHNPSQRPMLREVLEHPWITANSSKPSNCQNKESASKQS

AurC = target: T2, AurC (Homo sapiens, UniProt Q9UQB9); test: Activity against various protein tyrosine kinases: AurC
T2 sequence (Q9UQB9 1-309): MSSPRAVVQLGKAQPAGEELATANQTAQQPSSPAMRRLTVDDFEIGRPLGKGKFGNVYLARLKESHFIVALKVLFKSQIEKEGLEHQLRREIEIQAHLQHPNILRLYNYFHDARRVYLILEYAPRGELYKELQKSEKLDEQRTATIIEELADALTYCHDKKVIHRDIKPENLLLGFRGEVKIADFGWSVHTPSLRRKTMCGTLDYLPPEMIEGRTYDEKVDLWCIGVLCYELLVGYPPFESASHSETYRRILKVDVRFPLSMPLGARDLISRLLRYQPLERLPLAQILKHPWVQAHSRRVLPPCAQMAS

CaMKII (beta) = CaMKII (beta) (Homo sapiens, UniProt Q13554); test: Activity against various protein tyrosine kinases: CaMKII (beta)
CKIT = CKIT (Homo sapiens, UniProt P10721); test: Activity against various protein tyrosine kinases: CKIT
EPHA2 = EPHA2 (Homo sapiens, UniProt P29317); test: Activity against various protein tyrosine kinases: EPHA2
FGFR2 = FGFR2 (Homo sapiens, UniProt P21802); test: Activity against various protein tyrosine kinases: FGFR2
FGFR3 = FGFR3 (Homo sapiens, UniProt P22607); test: Activity against various protein tyrosine kinases: FGFR3
FGFR4 = FGFR4 (Homo sapiens, UniProt P22455); test: Activity against various protein tyrosine kinases: FGFR4
MET = MET (Homo sapiens, UniProt P08581); test: Activity against various protein tyrosine kinases: MET
p38-delta = target: T3, p38-delta (Homo sapiens, UniProt O15264); test: Activity against various protein tyrosine kinases: p38-delta
T3 sequence (O15264 1-365): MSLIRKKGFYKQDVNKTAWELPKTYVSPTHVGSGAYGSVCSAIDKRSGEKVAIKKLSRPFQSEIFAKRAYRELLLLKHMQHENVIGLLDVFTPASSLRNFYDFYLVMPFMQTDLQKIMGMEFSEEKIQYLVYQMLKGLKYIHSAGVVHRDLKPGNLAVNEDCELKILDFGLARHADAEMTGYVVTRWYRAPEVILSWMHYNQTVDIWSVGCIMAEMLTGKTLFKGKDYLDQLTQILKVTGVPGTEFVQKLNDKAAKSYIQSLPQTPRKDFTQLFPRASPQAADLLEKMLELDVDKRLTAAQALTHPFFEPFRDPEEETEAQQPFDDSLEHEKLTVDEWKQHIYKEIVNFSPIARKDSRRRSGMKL

PKG1-beta = target: T4, PKG1-beta (Homo sapiens, UniProt Q13976); test: Activity against various protein tyrosine kinases: PKG1-beta
T4 sequence (Q13976 1-686 isoform Q13976-2): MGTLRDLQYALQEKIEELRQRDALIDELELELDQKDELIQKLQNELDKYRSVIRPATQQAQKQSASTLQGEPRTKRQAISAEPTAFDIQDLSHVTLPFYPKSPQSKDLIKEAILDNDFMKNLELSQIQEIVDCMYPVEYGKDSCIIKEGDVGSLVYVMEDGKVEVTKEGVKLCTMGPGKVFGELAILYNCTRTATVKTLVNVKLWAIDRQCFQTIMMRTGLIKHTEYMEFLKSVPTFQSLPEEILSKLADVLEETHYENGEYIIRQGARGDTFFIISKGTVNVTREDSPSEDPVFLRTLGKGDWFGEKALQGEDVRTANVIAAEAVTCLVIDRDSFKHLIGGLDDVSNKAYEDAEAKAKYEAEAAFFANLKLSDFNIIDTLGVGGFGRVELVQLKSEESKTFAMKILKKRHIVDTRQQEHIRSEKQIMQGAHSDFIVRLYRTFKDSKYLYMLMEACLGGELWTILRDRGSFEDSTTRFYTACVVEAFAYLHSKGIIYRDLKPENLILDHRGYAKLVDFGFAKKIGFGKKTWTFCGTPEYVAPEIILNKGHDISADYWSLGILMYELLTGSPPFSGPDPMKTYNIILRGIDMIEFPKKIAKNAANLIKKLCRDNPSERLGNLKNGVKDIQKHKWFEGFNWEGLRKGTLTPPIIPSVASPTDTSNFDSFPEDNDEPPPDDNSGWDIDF

ABL = ABL (Homo sapiens, UniProt P00519); test: Activity against various protein tyrosine kinases: ABL; parameters: purchased MILLIPORE 14-529
Description: as §1

Chain of CKIT (P10721 26-976): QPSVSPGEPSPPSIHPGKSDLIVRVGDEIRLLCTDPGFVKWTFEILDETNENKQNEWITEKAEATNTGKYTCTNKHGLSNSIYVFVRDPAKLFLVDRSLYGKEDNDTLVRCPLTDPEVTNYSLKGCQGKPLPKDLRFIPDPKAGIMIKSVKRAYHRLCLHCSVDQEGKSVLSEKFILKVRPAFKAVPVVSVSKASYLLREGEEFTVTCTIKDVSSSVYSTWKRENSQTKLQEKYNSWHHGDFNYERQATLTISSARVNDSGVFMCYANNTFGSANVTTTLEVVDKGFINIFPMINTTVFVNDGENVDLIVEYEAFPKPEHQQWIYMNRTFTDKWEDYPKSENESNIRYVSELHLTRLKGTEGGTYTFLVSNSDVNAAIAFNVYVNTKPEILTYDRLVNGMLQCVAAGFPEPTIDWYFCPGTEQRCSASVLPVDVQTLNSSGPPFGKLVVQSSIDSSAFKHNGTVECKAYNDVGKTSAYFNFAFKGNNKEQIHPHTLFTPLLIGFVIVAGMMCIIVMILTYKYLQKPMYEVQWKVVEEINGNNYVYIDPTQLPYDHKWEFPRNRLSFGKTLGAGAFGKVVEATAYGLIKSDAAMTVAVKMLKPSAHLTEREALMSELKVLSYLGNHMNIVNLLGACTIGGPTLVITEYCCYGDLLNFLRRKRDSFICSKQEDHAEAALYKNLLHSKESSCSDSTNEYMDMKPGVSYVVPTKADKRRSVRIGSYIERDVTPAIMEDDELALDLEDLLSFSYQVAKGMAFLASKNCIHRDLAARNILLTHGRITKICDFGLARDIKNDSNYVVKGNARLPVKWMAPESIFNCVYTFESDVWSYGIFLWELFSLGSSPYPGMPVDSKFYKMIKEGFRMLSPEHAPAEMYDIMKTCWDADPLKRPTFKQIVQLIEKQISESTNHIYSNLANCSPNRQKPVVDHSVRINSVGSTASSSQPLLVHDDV
Chain of MET (P08581 25-1390): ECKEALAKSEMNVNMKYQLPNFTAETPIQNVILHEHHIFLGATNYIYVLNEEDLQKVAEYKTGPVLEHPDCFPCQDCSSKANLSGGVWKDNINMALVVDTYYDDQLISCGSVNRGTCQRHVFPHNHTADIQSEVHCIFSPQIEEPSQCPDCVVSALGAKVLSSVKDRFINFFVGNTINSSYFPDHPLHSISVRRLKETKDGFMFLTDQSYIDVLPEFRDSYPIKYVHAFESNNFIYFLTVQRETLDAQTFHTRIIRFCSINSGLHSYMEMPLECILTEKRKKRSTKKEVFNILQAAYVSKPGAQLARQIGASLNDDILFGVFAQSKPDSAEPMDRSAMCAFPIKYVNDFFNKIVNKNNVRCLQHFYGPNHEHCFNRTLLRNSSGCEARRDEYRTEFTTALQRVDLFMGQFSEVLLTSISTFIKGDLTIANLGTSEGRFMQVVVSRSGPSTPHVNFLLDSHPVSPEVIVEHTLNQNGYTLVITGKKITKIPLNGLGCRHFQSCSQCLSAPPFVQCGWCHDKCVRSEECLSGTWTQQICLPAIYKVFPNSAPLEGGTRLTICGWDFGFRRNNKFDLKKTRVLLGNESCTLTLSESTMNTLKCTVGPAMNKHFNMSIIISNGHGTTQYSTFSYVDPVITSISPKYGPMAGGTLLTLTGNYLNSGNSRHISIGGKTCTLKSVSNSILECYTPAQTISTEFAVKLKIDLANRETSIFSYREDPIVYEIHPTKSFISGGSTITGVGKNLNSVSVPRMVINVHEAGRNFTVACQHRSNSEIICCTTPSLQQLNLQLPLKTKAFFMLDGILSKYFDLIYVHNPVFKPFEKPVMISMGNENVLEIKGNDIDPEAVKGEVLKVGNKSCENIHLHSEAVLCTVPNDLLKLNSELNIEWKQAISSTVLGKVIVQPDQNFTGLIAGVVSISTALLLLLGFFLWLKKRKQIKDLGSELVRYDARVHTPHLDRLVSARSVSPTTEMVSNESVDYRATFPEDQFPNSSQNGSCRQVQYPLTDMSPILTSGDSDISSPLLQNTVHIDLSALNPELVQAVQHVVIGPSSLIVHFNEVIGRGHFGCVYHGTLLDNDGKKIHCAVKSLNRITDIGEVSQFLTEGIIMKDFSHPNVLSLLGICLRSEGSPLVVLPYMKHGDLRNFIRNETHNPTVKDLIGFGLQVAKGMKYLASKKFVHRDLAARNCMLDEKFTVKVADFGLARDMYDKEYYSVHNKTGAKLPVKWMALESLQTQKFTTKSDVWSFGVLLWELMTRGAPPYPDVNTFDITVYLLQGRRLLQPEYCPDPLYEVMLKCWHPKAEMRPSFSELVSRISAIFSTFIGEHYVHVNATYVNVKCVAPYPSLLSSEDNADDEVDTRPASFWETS
Chain of FGFR3 (P22607 23-806, species assumed): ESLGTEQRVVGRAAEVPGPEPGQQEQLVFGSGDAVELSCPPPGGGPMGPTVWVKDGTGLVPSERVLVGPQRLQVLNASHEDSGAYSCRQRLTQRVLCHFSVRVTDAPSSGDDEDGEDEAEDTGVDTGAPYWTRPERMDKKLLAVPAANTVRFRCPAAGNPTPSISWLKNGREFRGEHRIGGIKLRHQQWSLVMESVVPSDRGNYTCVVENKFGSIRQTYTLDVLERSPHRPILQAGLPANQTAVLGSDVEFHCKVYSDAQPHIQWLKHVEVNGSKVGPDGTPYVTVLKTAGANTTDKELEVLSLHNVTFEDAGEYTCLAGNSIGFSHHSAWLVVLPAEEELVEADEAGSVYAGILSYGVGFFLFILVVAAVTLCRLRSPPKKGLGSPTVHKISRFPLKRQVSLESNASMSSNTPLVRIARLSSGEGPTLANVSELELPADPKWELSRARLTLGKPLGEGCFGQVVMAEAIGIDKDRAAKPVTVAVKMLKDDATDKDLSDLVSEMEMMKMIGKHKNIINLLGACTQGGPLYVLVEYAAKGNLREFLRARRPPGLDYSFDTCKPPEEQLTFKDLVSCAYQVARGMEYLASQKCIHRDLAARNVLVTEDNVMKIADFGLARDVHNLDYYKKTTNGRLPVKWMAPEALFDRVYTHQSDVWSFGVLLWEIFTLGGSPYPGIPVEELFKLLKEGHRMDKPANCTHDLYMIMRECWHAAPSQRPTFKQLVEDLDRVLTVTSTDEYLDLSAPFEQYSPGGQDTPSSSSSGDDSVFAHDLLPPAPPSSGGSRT
Chain of FGFR2 (P21802 22-821, species assumed): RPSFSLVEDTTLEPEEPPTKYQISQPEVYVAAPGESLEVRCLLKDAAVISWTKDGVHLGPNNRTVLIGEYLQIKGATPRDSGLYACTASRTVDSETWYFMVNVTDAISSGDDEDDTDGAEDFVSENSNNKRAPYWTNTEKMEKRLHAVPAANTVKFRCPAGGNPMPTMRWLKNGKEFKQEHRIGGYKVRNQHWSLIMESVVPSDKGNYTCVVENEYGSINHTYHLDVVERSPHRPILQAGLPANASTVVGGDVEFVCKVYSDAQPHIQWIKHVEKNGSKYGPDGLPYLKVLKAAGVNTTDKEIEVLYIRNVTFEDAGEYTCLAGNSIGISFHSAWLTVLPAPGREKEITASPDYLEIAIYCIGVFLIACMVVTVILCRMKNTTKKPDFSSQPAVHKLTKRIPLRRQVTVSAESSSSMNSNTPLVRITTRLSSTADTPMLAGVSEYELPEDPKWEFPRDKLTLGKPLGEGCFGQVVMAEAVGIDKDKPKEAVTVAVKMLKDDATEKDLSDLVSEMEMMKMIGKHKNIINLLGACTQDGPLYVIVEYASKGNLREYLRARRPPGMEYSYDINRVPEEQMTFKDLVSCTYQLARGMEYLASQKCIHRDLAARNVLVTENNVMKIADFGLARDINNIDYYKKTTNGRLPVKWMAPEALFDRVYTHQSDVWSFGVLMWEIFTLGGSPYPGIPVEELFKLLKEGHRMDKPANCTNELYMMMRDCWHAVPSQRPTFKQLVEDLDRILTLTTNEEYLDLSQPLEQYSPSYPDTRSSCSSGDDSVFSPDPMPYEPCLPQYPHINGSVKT
Chain of FGFR4 (P22455 22-802, species assumed): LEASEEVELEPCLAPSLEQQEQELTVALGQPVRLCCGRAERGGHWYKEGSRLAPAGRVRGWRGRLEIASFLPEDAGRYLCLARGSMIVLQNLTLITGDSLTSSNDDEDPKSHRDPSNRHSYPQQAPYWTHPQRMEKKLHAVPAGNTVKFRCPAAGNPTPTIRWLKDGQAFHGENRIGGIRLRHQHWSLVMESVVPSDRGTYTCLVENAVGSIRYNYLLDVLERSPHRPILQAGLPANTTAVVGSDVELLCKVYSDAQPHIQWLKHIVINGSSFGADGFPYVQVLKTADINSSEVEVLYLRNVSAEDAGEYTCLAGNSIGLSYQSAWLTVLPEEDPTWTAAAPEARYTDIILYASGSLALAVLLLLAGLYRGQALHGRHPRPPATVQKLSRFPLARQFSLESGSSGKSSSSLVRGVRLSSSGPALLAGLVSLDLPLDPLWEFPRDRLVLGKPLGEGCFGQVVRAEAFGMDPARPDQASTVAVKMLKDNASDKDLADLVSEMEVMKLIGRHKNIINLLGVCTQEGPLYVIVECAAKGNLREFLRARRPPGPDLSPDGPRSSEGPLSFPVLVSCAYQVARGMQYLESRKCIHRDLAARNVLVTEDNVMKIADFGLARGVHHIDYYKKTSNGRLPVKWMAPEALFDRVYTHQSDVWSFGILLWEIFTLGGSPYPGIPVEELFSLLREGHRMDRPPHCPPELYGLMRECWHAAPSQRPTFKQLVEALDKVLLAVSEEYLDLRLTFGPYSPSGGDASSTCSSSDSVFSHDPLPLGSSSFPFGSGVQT

Row | SMILES | % Inhibition at 10 nM (ABL(H396P)) [%] | % Inhibition at 1 μM (ABL(H396P)) [%] | % Inhibition at 10 nM (ABL(T315I)) [%] | % Inhibition at 1 μM (ABL(T315I)) [%] | % Inhibition at 10 nM (AKT1) [%] | % Inhibition at 1 μM (AKT1) [%] | % Inhibition at 10 nM (AKT3) [%] | % Inhibition at 1 μM (AKT3) [%] | % Inhibition at 10 nM (AurA) [%] | % Inhibition at 1 μM (AurA) [%] | % Inhibition at 10 nM (AurC) [%] | % Inhibition at 1 μM (AurC) [%] | % Inhibition at 10 nM (CaMKII (beta)) [%] | % Inhibition at 1 μM (CaMKII (beta)) [%] | % Inhibition at 10 nM (CKIT) [%] | % Inhibition at 1 μM (CKIT) [%] | % Inhibition at 10 nM (EPHA2) [%] | % Inhibition at 1 μM (EPHA2) [%] | % Inhibition at 10 nM (FGFR2) [%] | % Inhibition at 1 μM (FGFR2) [%] | also measured
1 | COCCOCCOCCNC(=O)OCCN1CCN(c2cc(Nc3ncc(C(=O)Nc4c(C)cccc4Cl)s3)nc(C)n2)CC1 [mPEG3-NHCOO-Dasatinib] | 99 | 99 | 1 | 36 | 7 | 0 | 0 | −1 | −7 | 19 | −1 | 0 | 1 | 2 | 34 | 100 | 40 | 100 | −2 | 38 | % Inhibition at 10 nM (FGFR3): 3%; % Inhibition at 1 μM (FGFR3): 11%; % Inhibition at 10 nM (FGFR4): 3%; % Inhibition at 1 μM (FGFR4): 6%; % Inhibition at 10 nM (MET): 3%; % Inhibition at 1 μM (MET): 0%; % Inhibition at 10 nM (p38-delta): 0%; % Inhibition at 1 μM (p38-delta): 2%; % Inhibition at 10 nM (PKG1-beta): −2%; % Inhibition at 1 μM (PKG1-beta): 0%; % Inhibition at 10 nM (ABL): 99%; % Inhibition at 1 μM (ABL): 99%
2 | COCCOCCOCCOCCOCCOCCOCCNC(=O)OCCN1CCN(c2cc(Nc3ncc(C(=O)Nc4c(C)cccc4Cl)s3)nc(C)n2)CC1 [mPEG7-NHCOO-Dasatinib] | 99 | 99 | 4 | 26 | −1 | 0 | −3 | −2 | 3 | 28 | 0 | 2 | 1 | 2 | 34 | 100 | 36 | 101 | 5 | 35 | % Inhibition at 10 nM (FGFR3): 2%; % Inhibition at 1 μM (FGFR3): 10%; % Inhibition at 10 nM (FGFR4): 0%; % Inhibition at 1 μM (FGFR4): 2%; % Inhibition at 10 nM (MET): 1%; % Inhibition at 1 μM (MET): 1%; % Inhibition at 10 nM (p38-delta): 0%; % Inhibition at 1 μM (p38-delta): 0%; % Inhibition at 10 nM (PKG1-beta): −3%; % Inhibition at 1 μM (PKG1-beta): −3%; % Inhibition at 10 nM (ABL): 99%; % Inhibition at 1 μM (ABL): 99%
